Assay results as given in patent US12220412B2, “Methods for administering corticosteroids” (Sparrow Pharmaceuticals, Inc., priority 2018, dated 2025).

How the values were obtained:
HSD-1 [1] = target: T1, HSD-1 (Homo sapiens, UniProt P28845); assay: Brain HSD-1 occupancy by PET with [11C]AS2471907 after single dose; type: in vivo; parameters: from tissue; host or cells: in vivo, human subjects; conditions: for HSD-1 occupancy: single dose 3 mg
Description: The level and time course of HSD-1 occupancy following single dose administration of Compound A were assessed in healthy male subjects by positron emission tomography (PET). For each PET scan, [11C]AS2471907 was administered by an intravenous infusion pump, followed by up to 120 minutes of dynamic PET data acquisition. Most subjects underwent two PET scans.

HSD-1 [2] = target: T1, HSD-1; assay: Urinary (tetrahydrocortisol+allotetrahydrocortisol)/tetrahydrocortisone ratio as indicator of HSD-1 activity in clinical trial subjects; type: in vivo; parameters: from tissue; host or cells: in vivo, human subjects; conditions: for mean HSD-1 ratio (significantly decreased HSD-1 activity): both days 1 and 18
Description: Following a minimum of a 10-hour fast, healthy adult racially diverse male and female subjects were administered Compound A (ASP3662) or placebo for Compound A with 240 mL of room temperature water. Subjects continued to fast from any food and drinks (water was allowed as desired except for 1 hour before and 1 hour after study drug administration) until 4 hours after study drug administration. Urine samples were collected for the measurement of cortisol, cortisone, tetrahydrocortisol (5α, 5β) and tetrahydrocortisone. The cumulative amount of each entity excreted in the urine was calculated for each subject from time zero to 24 hours after dosing (Ae24), from 24 hours after dosing to 48 hours after dosing (Ae48), and Aelast.
The ratio of 5α-tetrahydrocortisol+5β-tetrahydrocortisol to urinary tetrahydrocortisone was used as an indicator of HSD-1 activity. Compound A decreased the 5α-tetrahydrocortisol+5β-tetrahydrocortisol to urinary tetrahydrocortisone ratio with increasing dose compared to placebo, resulting in approximately 80% inhibition at 6 mg. […]

[3] = Population pharmacokinetics model for Compound A from two clinical trials; type: in vivo, human
Description: On the basis of data from two Compound A clinical trials, a population pharmacokinetics model (FIG. 4) was developed using a maximal dose of 20 mg. The selected model to describe the pharmacokinetics of Compound A was a two-compartment disposition model, with a 4-compartment transit absorption, saturable binding from the central compartment, and first-order elimination. Inter-individual variability was implemented on clearance (CL), volume of distribution (V2), absorption rate constant (kA), second order association constant (Kon), first order dissociation constant (Koff), and total number of saturable binding receptors (R). This model had satisfactory goodness-of-fit and acceptable relative standard errors.
CL, kA, R, Kon, and Koff are defined above. BAV is relative bioavailability, kTR is a transit rate constant (equal to kA), k23 and k32 are transfer rate constants between central and peripheral compartments.
The covariate effect was moderate (25% increase of BAV in 88-year old subjects compared to 36-year old subjects).

mice = assay: Corticosterone-induced deficit of Y-maze exploration (alternation rate); type: in vivo; conditions: single doses of 0.3 to 3 mg/kg
From the text: (§1) (a) no CS; (b)-(f) CS; dosage of Compound A (mg/kg): (b) 0; (c) 0.01; (d) 0.03; (e) 1; (f) 3.
Mice typically prefer to explore the novel arm of a Y-maze, a behavior considered indicative of short-term memory. Corticosterone (CS) decreases the percentage of times mice enter the novel arm of a Y maze, and so is considered to have a negative cognitive effect.

magnesium-deficient mice = assay: Corticosterone (CS)-induced tail biting behavior in magnesium-deficient mice given N-methyl-D-aspartate; type: in vivo; conditions: N-methyl-D-aspartate and corticosterone, single doses of 0.3 to 3 mg/kg
From the text: as §1
Increased tail biting, an anxiety behavior, was induced in magnesium-deficient mice with administration of N-methyl-D-aspartate and corticosterone (CS). Tail biting was not induced by N-methyl-D-aspartate without co-administration of CS (FIG. 9(a)).

[4] = elderly non-Japanese subjects, 20 mg, Day 1 single dose, 24 h urine
[5] = elderly non-Japanese subjects, 20 mg, Day 18 after daily doses Days 5 through 18, 24 h urine
[6] = healthy adult Japanese subjects, 10 mg, Day 1 single dose, 24 h urine
[7] = healthy adult Japanese subjects, 10 mg, Day 18 after daily doses Days 5 through 18, 24 h urine
[8] = healthy adult Japanese subjects, 20 mg, Day 1 single dose, 24 h urine
[9] = healthy adult Japanese subjects, 20 mg, Day 18 after daily doses Days 5 through 18, 24 h urine
[10] = healthy adult Japanese subjects, 50 mg, Day 1 single dose, 24 h urine
[11] = healthy adult Japanese subjects, 50 mg, Day 18 after daily doses Days 5 through 18, 24 h urine
[12] = healthy adult non-Japanese subjects, 20 mg, Day 1 single dose, 24 h urine
[13] = healthy adult non-Japanese subjects, 20 mg, Day 18 after daily doses Days 5 through 18, 24 h urine
[14] = healthy adult non-Japanese subjects, 50 mg, Day 1 single dose, 24 h urine
[15] = healthy adult non-Japanese subjects, 50 mg, Day 18 after daily doses Days 5 through 18, 24 h urine

T1 sequence (P28845 whole entry, the tested form may be a part): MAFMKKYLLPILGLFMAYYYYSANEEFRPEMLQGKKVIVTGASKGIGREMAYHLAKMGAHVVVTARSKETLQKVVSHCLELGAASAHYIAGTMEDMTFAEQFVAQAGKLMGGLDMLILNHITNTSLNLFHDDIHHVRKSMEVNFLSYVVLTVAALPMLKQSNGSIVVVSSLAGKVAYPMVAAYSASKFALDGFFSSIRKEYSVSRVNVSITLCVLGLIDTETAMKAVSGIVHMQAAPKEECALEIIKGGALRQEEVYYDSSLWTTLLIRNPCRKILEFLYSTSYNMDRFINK

Cn1c(-c2ccc(C(N)=O)cc2F)nnc1C(C)(C)Oc1c(F)cc(Cl)cc1F [Compound A]
Occupancy (ROIswa), PET Scan 1 (HSD-1 [1]; Subject A, 30 mg single dose, 2.62 hrs post dose): 99.68%
Occupancy (ROIswa), PET Scan 2 (HSD-1 [1]; Subject A, 30 mg single dose, 23.75 hrs post dose): 99.71%
Occupancy (ROIswa), PET Scan 1 (HSD-1 [1]; Subject B, 30 mg single dose, 27.43 hrs post dose): 99.97%
Occupancy (ROIswa), PET Scan 2 (HSD-1 [1]; Subject B, 30 mg single dose, 46.75 hrs post dose): 98.83%
Occupancy (ROIswa), PET Scan 1 (HSD-1 [1]; Subject C, 6 mg single dose, 3.25 hrs post dose): 99.73%
Occupancy (ROIswa), PET Scan 2 (HSD-1 [1]; Subject C, 6 mg single dose, 23.74 hrs post dose): 96.20%
Occupancy (ROIswa), PET Scan 1 (HSD-1 [1]; Subject D, 3 mg single dose, 3.27 hrs post dose): 89.91%
Occupancy (ROIswa), PET Scan 2 (HSD-1 [1]; Subject D, 3 mg single dose, 45.25 hrs post dose): 83.15%
Occupancy (ROIswa), PET Scan 1 (HSD-1 [1]; Subject E, 3 mg single dose, 19.2 hrs post dose): 88.16%
Occupancy (ROIswa), PET Scan 2 (HSD-1 [1]; Subject E, 3 mg single dose, 25.43 hrs post dose): 83.85%
Occupancy (ROIswa), PET Scan 1 (HSD-1 [1]; Subject F, 3 mg single dose, 42.19 hrs post dose): 58.87%
Occupancy (ROIswa), PET Scan 2 (HSD-1 [1]; Subject F, 3 mg single dose, 138.67 hrs post dose): 45.49%
Occupancy (ROIswa), PET Scan 1 (HSD-1 [1]; Subject G, 3 mg single dose, 42.46 hrs post dose): 70.96%
Occupancy (ROIswa), PET Scan 2 (HSD-1 [1]; Subject G, 3 mg single dose, 189.15 hrs post dose): 25.61%
Occupancy (ROIswa), PET Scan 1 (HSD-1 [1]; Subject H, 3 mg single dose, 43.85 hrs post dose): 56.39%
Occupancy (ROIswa), PET Scan 2 (HSD-1 [1]; Subject H, 3 mg single dose, 139.36 hrs post dose): 36.31%
Occupancy (ROIswa), PET Scan 1 (HSD-1 [1]; Subject I, 3 mg single dose, 46.24 hrs post dose): 60.92%
Occupancy (ROIswa), PET Scan 1 (HSD-1 [1]; Subject J, 2 mg single dose, 2.84 hrs post dose): <0%
Occupancy (ROIswa), PET Scan 1 (HSD-1 [1]; Subject K, 1 mg single dose, 3.24 hrs post dose): <0%
Occupancy (ROIswa), PET Scan 2 (HSD-1 [1]; Subject K, 1 mg single dose, 20.66 hrs post dose): <0%
Occupancy (ROIswa), PET Scan 1 (HSD-1 [1]; Subject L, 1 mg single dose, 22.55 hrs post dose): <0%
Occupancy (ROIswa), PET Scan 2 (HSD-1 [1]; Subject L, 1 mg single dose, 47.95 hrs post dose): <0%
enzyme occupancy (HSD-1 [1]; single 2 and 1 mg doses): no enzyme occupancy was detected
HSD-1 occupancy (HSD-1 [1]; 19.2-25.43 hours post dose): ~86%
HSD-1 occupancy (HSD-1 [1]; 42.19-46.24 hours post dose): 60-80%
HSD-1 occupancy (HSD-1 [1]; 138.67-139.36 hours post dose): ~40%
HSD-1 occupancy (HSD-1 [1]; 3.25 hours post dose): ~90%
HSD-1 occupancy (HSD-1 [1]; 189.15 hours post dose): 26%
region of interest size weighted average (ROIswa) HSD-1 occupancy (HSD-1 [1]; single doses of 30 and 6 mg, scan times 2.62 to 46.75 hours post dose): > 96%
number of doses to achieve full HSD-1 inhibition (HSD-1 [2]; dose level 0.4 mg): 9 to 11 doses
number of doses to achieve full HSD-1 inhibition (HSD-1 [2]; dose level 0.7 mg): 5 to 6 doses
number of doses to achieve full HSD-1 inhibition (HSD-1 [2]; dose level 2 mg): 2 doses
HSD-1 ratio, Day 1 Mean (HSD-1 [2]; [4]): 0.17
HSD-1 ratio, Day 1 Median (HSD-1 [2]; [4]): 0.16
HSD-1 ratio, Day 18 Mean (HSD-1 [2]; [5]): 0.11
HSD-1 ratio, Day 18 Median (HSD-1 [2]; [5]): 0.11
mean HSD-1 ratio (significantly decreased HSD-1 activity) (HSD-1 [2]; elderly non-Japanese subjects, 20 mg): approximately 0.1
HSD-1 ratio (tetrahydrocortisol [5α + 5β]/tetrahydrocortisone), Day 1 Median (HSD-1 [2]; [6]): 0.19
HSD-1 ratio (tetrahydrocortisol [5α + 5β]/tetrahydrocortisone), Day 1 mean (HSD-1 [2]; [6]): 0.18
HSD-1 ratio (tetrahydrocortisol [5α + 5β]/tetrahydrocortisone), Day 18 Mean (HSD-1 [2]; [7]): 0.13
HSD-1 ratio (tetrahydrocortisol [5α + 5β]/tetrahydrocortisone), Day 18 Median (HSD-1 [2]; [7]): 0.12
HSD-1 ratio (tetrahydrocortisol [5α + 5β]/tetrahydrocortisone), Day 1 Median (HSD-1 [2]; [8]): 0.14
HSD-1 ratio (tetrahydrocortisol [5α + 5β]/tetrahydrocortisone), Day 1 mean (HSD-1 [2]; [8]): 0.14
HSD-1 ratio (tetrahydrocortisol [5α + 5β]/tetrahydrocortisone), Day 18 Mean (HSD-1 [2]; [9]): 0.09
HSD-1 ratio (tetrahydrocortisol [5α + 5β]/tetrahydrocortisone), Day 18 Median (HSD-1 [2]; [9]): 0.10
HSD-1 ratio (tetrahydrocortisol [5α + 5β]/tetrahydrocortisone), Day 1 Median (HSD-1 [2]; [10]): 0.14
HSD-1 ratio (tetrahydrocortisol [5α + 5β]/tetrahydrocortisone), Day 1 mean (HSD-1 [2]; [10]): 0.14
HSD-1 ratio (tetrahydrocortisol [5α + 5β]/tetrahydrocortisone), Day 18 Mean (HSD-1 [2]; [11]): 0.10
HSD-1 ratio (tetrahydrocortisol [5α + 5β]/tetrahydrocortisone), Day 18 Median (HSD-1 [2]; [11]): 0.09
mean HSD-1 ratio (significantly decreased HSD-1 activity) (HSD-1 [2]; healthy adult Japanese subjects, doses of 10 mg, 20 mg and 50 mg): 0.1 to 0.2
HSD-1 activity (urinary ratio) (HSD-1 [2]; healthy adult non-Japanese subjects, 2 mg, 0.7 mg, 0.4 mg and 0.2 mg cohorts, single dose Day 1 then daily doses): significantly decreased
HSD-1 ratio (tetrahydrocortisol [5α + 5β]/tetrahydrocortisone), Day 1 Median (HSD-1 [2]; [12]): 0.16
HSD-1 ratio (tetrahydrocortisol [5α + 5β]/tetrahydrocortisone), Day 1 mean (HSD-1 [2]; [12]): 0.17
HSD-1 ratio (tetrahydrocortisol [5α + 5β]/tetrahydrocortisone), Day 18 Mean (HSD-1 [2]; [13]): 0.12
HSD-1 ratio (tetrahydrocortisol [5α + 5β]/tetrahydrocortisone), Day 18 Median (HSD-1 [2]; [13]): 0.12
HSD-1 ratio (tetrahydrocortisol [5α + 5β]/tetrahydrocortisone), Day 1 Median (HSD-1 [2]; [14]): 0.16
HSD-1 ratio (tetrahydrocortisol [5α + 5β]/tetrahydrocortisone), Day 1 mean (HSD-1 [2]; [14]): 0.16
HSD-1 ratio (tetrahydrocortisol [5α + 5β]/tetrahydrocortisone), Day 18 Mean (HSD-1 [2]; [15]): 0.11
HSD-1 ratio (tetrahydrocortisol [5α + 5β]/tetrahydrocortisone), Day 18 Median (HSD-1 [2]; [15]): 0.10
mean HSD-1 ratio (significantly decreased HSD-1 activity) (HSD-1 [2]; healthy adult non-Japanese subjects, doses of 20 mg and 50 mg): approximately 0.1
inhibition (decrease of 5α-tetrahydrocortisol+5β-tetrahydrocortisol to urinary tetrahydrocortisone ratio compared to placebo) (HSD-1 [2]; healthy adult subjects, fasted, single dose 6 mg): approximately 80%
level of inhibition of urinary HSD-1 ratio on increasing the dose (HSD-1 [2]; healthy adult subjects, fasted, single dose above 6 mg): did not substantially increase the level of inhibition
increase of BAV (relative bioavailability), covariate effect of age ([3]; 88-year old subjects compared to 36-year old subjects): 25%
Covariate: age on BAV (relative bioavailability), estimate ([3]; population PK model): 0.200
Koff (first order dissociation constant, saturable binding), estimate ([3]; population PK model): 5.83e-05 s⁻¹
Kon (second order association constant, saturable binding), estimate ([3]; population PK model): 0.0682 µg⁻¹ h⁻¹
R (total number of saturable binding receptors), estimate ([3]; population PK model): 3170 nmol
V2 (volume of distribution), estimate ([3]; population PK model): 90.2 L/70 kg
amount of Compound A corresponding to estimated total number of saturable binding receptors ([3]; population PK model): 1.347 mg
k23 (transfer rate constant between central and peripheral compartments), estimate ([3]; population PK model): 0.00341 h^−1/(70 kg)^−0.25
k32 (transfer rate constant between central and peripheral compartments), estimate ([3]; population PK model): 0.0255 h^−1/(70 kg)^−0.25
kA (absorption rate constant), estimate ([3]; population PK model): 5.38 h⁻¹
CL (clearance), estimate ([3]; population PK model, doses up to 20 mg): 7.24 L/h/(70 kg)^0.75
Y-maze novel arm exploration behavior (alternation rate) after corticosterone (mice): restored a more normal behavior pattern
CS-dependent increase of tail biting behavior (magnesium-deficient mice): fully reversed
